Assay results as given in ChEMBL document CHEMBL2203009, “Synthesis of isoindole and benzoisoindole derivatives of teicoplanin pseudoaglycon with remarkable antibacterial and antiviral activities” (Bioorg Med Chem Lett, 2012).
Converted amounts (≈) assume the structure as drawn.

Tests used:
[1] = Toxicity in HEL cells assessed as induction of cell morphology changes; type: cell-based; conditions: human
Human alphaherpesvirus 1 [2] = assay: Antiviral activity against thymidine kinase deficient and acyclovir-resistant HSV1 KOS infected in HEL cells assessed as inhibition of virus-induced cytopathic effect; type: functional, organism-based; conditions: Human alphaherpesvirus 1, KOS
[3] = system: Vesicular stomatitis virus; assay: Antiviral activity against Vesicular stomatitis virus infected in HEL cells assessed as inhibition of virus-induced cytopathic effect; type: functional, organism-based
Vaccinia virus = assay: Antiviral activity against Vaccinia virus infected in HEL cells assessed as inhibition of virus-induced cytopathic effect; type: functional, organism-based; conditions: Orthopoxvirus vaccinia
Human alphaherpesvirus 2 = assay: Antiviral activity against HSV2 G infected in HEL cells assessed as inhibition of virus-induced cytopathic effect; type: functional, organism-based; conditions: Human alphaherpesvirus 2, strain G
Human alphaherpesvirus 1 [4] = assay: Antiviral activity against HSV1 KOS infected in HEL cells assessed as inhibition of virus-induced cytopathic effect; type: functional, organism-based; conditions: Human alphaherpesvirus 1, KOS
[5] = Toxicity in MDCK cells assessed as induction of cell morphology changes; type: cell-based, Canis lupus familiaris; conditions: dog
Influenza B virus = assay: Antiviral activity against Influenza B virus (B/Hong Kong/05/1972) […] infected in MDCK cells assessed as inhibition of virus-induced cytopathic effect; type: functional, cell-based; conditions: B/Hong Kong/05/1972, MDCK
H3N2 subtype = assay: Antiviral activity against Influenza A virus (A/Hong Kong/7/1987(H3N2)) […] infected in MDCK cells assessed as inhibition of virus-induced cytopathic effect; type: functional, organism-based
Influenza A virus = assay: Antiviral activity against Influenza A virus (A/Puerto Rico/8/1934(H1N1)) H1N1 infected in MDCK cells assessed as inhibition of virus-induced cytopathic effect; type: functional, organism-based
Enterococcus faecalis [6] = assay: Antimicrobial activity against Enterococcus faecalis 15376 over-expressing vanA; type: functional
Enterococcus faecalis [7] = assay: Antimicrobial activity against Enterococcus faecalis ATCC 51299 over-expressing vanB; type: functional
[8] = system: Staphylococcus epidermidis; assay: Antimicrobial activity against Staphylococcus epidermidis over-expressing MecA; type: functional
Enterococcus faecalis [9] = assay: Antimicrobial activity against Enterococcus faecalis ATCC 29212; type: functional
[10] = system: Staphylococcus epidermidis; assay: Antimicrobial activity against Staphylococcus epidermidis ATCC 35984 biofilms; type: functional
Staphylococcus aureus [11] = assay: Antimicrobial activity against methicillin-resistant Staphylococcus aureus ATCC 33591; type: functional
Bacillus subtilis = assay: Antimicrobial activity against Bacillus subtilis ATCC 6633; type: functional
Staphylococcus aureus [12] = assay: Antimicrobial activity against methicillin-sensitive Staphylococcus aureus ATCC 29213; type: functional

SMILES | MCC [1] | EC50 (Human alphaherpesvirus 1 [2]) | EC50 [3] | EC50 (Vaccinia virus) | EC50 (Human alphaherpesvirus 2) | EC50 (Human alphaherpesvirus 1 [4]) | MCC [5] | EC50 (Influenza B virus) | EC50 (H3N2 subtype) | EC50 (Influenza A virus) | MBC (Enterococcus faecalis [6]) | MIC (Enterococcus faecalis [6]) | MBC (Enterococcus faecalis [7]) | MIC (Enterococcus faecalis [7]) | MBC [8] | MIC [8] | MBC (Enterococcus faecalis [9]) | MIC (Enterococcus faecalis [9]) | MBC [10] | MIC [10] | also measured
CC(=O)N[C@@H]1[C@@H](OC(C)=O)[C@H](OC(C)=O)[C@@H](COC(C)=O)O[C@H]1Sc1c2ccccc2cn1[C@H]1C(=O)N[C@@H]2Cc3ccc(c(Cl)c3)Oc3cc4cc(c3O)Oc3ccc(cc3Cl)[C@@H](O[C@@H]3O[C@H](CO)[C@@H](O)[C@H](O)[C@H]3NC(C)=O)[C@@H]3NC(=O)[C@H](NC(=O)[C@@H]4NC(=O)[C@@H](NC2=O)c2cc(O)cc(c2)Oc2cc1ccc2O)c1ccc(O)c(c1)-c1c(O)cc(O)cc1[C@@H](C(=O)O)NC3=O | > 100 µM | 45 µM | > 100 µM | 45 µM | 40 µM | 40 µM | 20 µM | > 100 µM | > 100 µM | > 100 µM | 256 µg/mL (≈ 137 µM) | 0.0625 µg/mL (≈ 0.0335 µM) | 256 µg/mL (≈ 137 µM) | 2 µg/mL (≈ 1.07 µM) | 32 µg/mL (≈ 17.2 µM) | 2 µg/mL (≈ 1.07 µM) | 256 µg/mL (≈ 137 µM) | 2 µg/mL (≈ 1.07 µM) | 2 µg/mL (≈ 1.07 µM) | 0.0075 µg/mL (≈ 0.00402 µM) | MBC (Staphylococcus aureus [11]): 2 µg/mL (≈ 1.07 µM); MIC (Staphylococcus aureus [11]): 0.0625 µg/mL (≈ 0.0335 µM); MBC (Bacillus subtilis): 1 µg/mL (≈ 0.537 µM); MIC (Bacillus subtilis): 0.25 µg/mL (≈ 0.134 µM); MBC (Staphylococcus aureus [12]): 1 µg/mL (≈ 0.537 µM); MIC (Staphylococcus aureus [12]): 0.125 µg/mL (≈ 0.0671 µM)
CC(=O)N[C@H]1[C@H](O[C@@H]2c3ccc(c(Cl)c3)Oc3cc4cc(c3O)Oc3ccc(cc3Cl)C[C@H]3NC(=O)[C@H](N)c5ccc(O)c(c5)Oc5cc(O)cc(c5)[C@H](NC3=O)C(=O)N[C@H]4C(=O)N[C@H]3C(=O)N[C@@H]2C(=O)N[C@H](C(=O)O)c2cc(O)cc(O)c2-c2cc3ccc2O)O[C@H](CO)[C@@H](O)[C@@H]1O | > 100 µM | > 100 µM | > 100 µM | > 100 µM | > 100 µM | > 100 µM | ≥ 100 µM | > 100 µM | 17 µM | 23 µM | – | – | – | – | – | – | – | – | – | – | –
CC(=O)N[C@H]1[C@H](O[C@@H]2c3ccc(c(Cl)c3)Oc3cc4cc(c3O)Oc3ccc(cc3Cl)C[C@H]3NC(=O)[C@H](n5cc6cc7ccccc7cc6c5Sc5nc6ccccc6s5)c5ccc(O)c(c5)Oc5cc(O)cc(c5)[C@H](NC3=O)C(=O)N[C@H]4C(=O)N[C@H]3C(=O)N[C@@H]2C(=O)N[C@H](C(=O)O)c2cc(O)cc(O)c2-c2cc3ccc2O)O[C@H](CO)[C@@H](O)[C@@H]1O | > 100 µM | > 100 µM | > 100 µM | > 100 µM | > 100 µM | > 100 µM | 20 µM | > 100 µM | 1.6 µM | < 4.9 µM | 32 µg/mL (≈ 18.6 µM) | 0.0313 µg/mL (≈ 0.0182 µM) | 256 µg/mL (≈ 149 µM) | 1 µg/mL (≈ 0.582 µM) | 256 µg/mL (≈ 149 µM) | 0.0313 µg/mL (≈ 0.0182 µM) | 256 µg/mL (≈ 149 µM) | 0.0313 µg/mL (≈ 0.0182 µM) | 0.5 µg/mL (≈ 0.291 µM) | 0.015 µg/mL (≈ 0.00873 µM) | MBC (Staphylococcus aureus [11]): 4 µg/mL (≈ 2.33 µM); MIC (Staphylococcus aureus [11]): 0.015 µg/mL (≈ 0.00873 µM); MBC (Bacillus subtilis): 4 µg/mL (≈ 2.33 µM); MIC (Bacillus subtilis): 0.0313 µg/mL (≈ 0.0182 µM); MBC (Staphylococcus aureus [12]): 0.5 µg/mL (≈ 0.291 µM); MIC (Staphylococcus aureus [12]): 0.015 µg/mL (≈ 0.00873 µM)
CC(=O)N[C@H]1[C@H](O[C@@H]2c3ccc(c(Cl)c3)Oc3cc4cc(c3O)Oc3ccc(cc3Cl)C[C@H]3NC(=O)[C@H](n5cc6ccccc6c5S[C@@H]5O[C@H](CO)[C@@H](O)[C@H](O)[C@H]5O)c5ccc(O)c(c5)Oc5cc(O)cc(c5)[C@H](NC3=O)C(=O)N[C@H]4C(=O)N[C@H]3C(=O)N[C@@H]2C(=O)N[C@H](C(=O)O)c2cc(O)cc(O)c2-c2cc3ccc2O)O[C@H](CO)[C@@H](O)[C@@H]1O | ≥ 100 µM | ≥ 45 µM | 52 µM | 45 µM | 40 µM | 45 µM | < 0.8 µM | > 100 µM | > 100 µM | > 100 µM | 256 µg/mL (≈ 151 µM) | 0.0625 µg/mL (≈ 0.0368 µM) | 256 µg/mL (≈ 151 µM) | 1 µg/mL (≈ 0.589 µM) | 32 µg/mL (≈ 18.9 µM) | 0.015 µg/mL (≈ 0.00884 µM) | 256 µg/mL (≈ 151 µM) | 2 µg/mL (≈ 1.18 µM) | 0.5 µg/mL (≈ 0.295 µM) | 0.0075 µg/mL (≈ 0.00442 µM) | MBC (Staphylococcus aureus [11]): 1 µg/mL (≈ 0.589 µM); MIC (Staphylococcus aureus [11]): 0.0075 µg/mL (≈ 0.00442 µM); MBC (Bacillus subtilis): 1 µg/mL (≈ 0.589 µM); MIC (Bacillus subtilis): 0.125 µg/mL (≈ 0.0737 µM); MBC (Staphylococcus aureus [12]): 1 µg/mL (≈ 0.589 µM); MIC (Staphylococcus aureus [12]): 0.0313 µg/mL (≈ 0.0185 µM)
CC(=O)N[C@H]1[C@H](O[C@@H]2c3ccc(c(Cl)c3)Oc3cc4cc(c3O)Oc3ccc(cc3Cl)C[C@H]3NC(=O)[C@H](n5cc6ccccc6c5S[C@@H]5O[C@H](COC(C)=O)[C@@H](OC(C)=O)[C@H](OC(C)=O)[C@H]5OC(C)=O)c5ccc(O)c(c5)Oc5cc(O)cc(c5)[C@H](NC3=O)C(=O)N[C@H]4C(=O)N[C@H]3C(=O)N[C@@H]2C(=O)N[C@H](C(=O)O)c2cc(O)cc(O)c2-c2cc3ccc2O)O[C@H](CO)[C@@H](O)[C@@H]1O | ≥ 100 µM | 40 µM | 48 µM | 45 µM | 11 µM | 40 µM | 20 µM | > 100 µM | > 100 µM | > 100 µM | 256 µg/mL (≈ 137 µM) | 4 µg/mL (≈ 2.15 µM) | 256 µg/mL (≈ 137 µM) | 4 µg/mL (≈ 2.15 µM) | 256 µg/mL (≈ 137 µM) | 2 µg/mL (≈ 1.07 µM) | 256 µg/mL (≈ 137 µM) | 1 µg/mL (≈ 0.536 µM) | 8 µg/mL (≈ 4.29 µM) | 2 µg/mL (≈ 1.07 µM) | MBC (Staphylococcus aureus [11]): 128 µg/mL (≈ 68.6 µM); MIC (Staphylococcus aureus [11]): 0.0313 µg/mL (≈ 0.0168 µM); MBC (Bacillus subtilis): 64 µg/mL (≈ 34.3 µM); MIC (Bacillus subtilis): 0.25 µg/mL (≈ 0.134 µM); MBC (Staphylococcus aureus [12]): 16 µg/mL (≈ 8.58 µM); MIC (Staphylococcus aureus [12]): 0.0625 µg/mL (≈ 0.0335 µM)
CC(=O)N[C@@H]1[C@@H](O)[C@H](O)[C@@H](CO)O[C@H]1Sc1c2ccccc2cn1[C@H]1C(=O)N[C@@H]2Cc3ccc(c(Cl)c3)Oc3cc4cc(c3O)Oc3ccc(cc3Cl)[C@@H](O[C@@H]3O[C@H](CO)[C@@H](O)[C@H](O)[C@H]3NC(C)=O)[C@@H]3NC(=O)[C@H](NC(=O)[C@@H]4NC(=O)[C@@H](NC2=O)c2cc(O)cc(c2)Oc2cc1ccc2O)c1ccc(O)c(c1)-c1c(O)cc(O)cc1[C@@H](C(=O)O)NC3=O | ≥ 100 µM | 45 µM | 52 µM | 47 µM | 45 µM | 47 µM | < 0.8 µM | > 100 µM | > 100 µM | > 100 µM | 256 µg/mL (≈ 147 µM) | 1 µg/mL (≈ 0.576 µM) | 256 µg/mL (≈ 147 µM) | 4 µg/mL (≈ 2.3 µM) | 64 µg/mL (≈ 36.8 µM) | 0.0075 µg/mL (≈ 0.00432 µM) | 256 µg/mL (≈ 147 µM) | 1 µg/mL (≈ 0.576 µM) | 0.5 µg/mL (≈ 0.288 µM) | 0.0313 µg/mL (≈ 0.018 µM) | MBC (Staphylococcus aureus [11]): 1 µg/mL (≈ 0.576 µM); MIC (Staphylococcus aureus [11]): 1 µg/mL (≈ 0.576 µM); MBC (Bacillus subtilis): 1 µg/mL (≈ 0.576 µM); MIC (Bacillus subtilis): 0.125 µg/mL (≈ 0.0719 µM); MBC (Staphylococcus aureus [12]): 1 µg/mL (≈ 0.576 µM); MIC (Staphylococcus aureus [12]): 0.5 µg/mL (≈ 0.288 µM)
CC(=O)N[C@@H]1[C@H](Oc2c3cc4cc2Oc2ccc(cc2Cl)[C@@H](O[C@@H]2O[C@@H](CO)[C@@H](O)[C@H](O)[C@@H]2NC(C)=O)[C@@H]2NC(=O)[C@H](NC(=O)[C@@H]4NC(=O)[C@H]4NC(=O)[C@@H](Cc5ccc(c(Cl)c5)O3)NC(=O)[C@H](N)c3ccc(O)c(c3)Oc3cc(O)cc4c3)c3ccc(O)c(c3)-c3c(O[C@H]4O[C@H](CO)[C@@H](O)[C@@H](O)[C@@H]4O)cc(O)cc3[C@@H](C(=O)O)NC2=O)O[C@@H](CO)[C@@H](O)[C@@H]1O | – | – | – | – | – | – | – | – | – | – | 256 µg/mL (≈ 145 µM) | 256 µg/mL (≈ 145 µM) | 256 µg/mL (≈ 145 µM) | 4 µg/mL (≈ 2.26 µM) | 32 µg/mL (≈ 18.1 µM) | 8 µg/mL (≈ 4.53 µM) | 64 µg/mL (≈ 36.2 µM) | 2 µg/mL (≈ 1.13 µM) | 16 µg/mL (≈ 9.05 µM) | 2 µg/mL (≈ 1.13 µM) | MBC (Staphylococcus aureus [11]): 2 µg/mL (≈ 1.13 µM); MIC (Staphylococcus aureus [11]): 0.5 µg/mL (≈ 0.283 µM); MBC (Bacillus subtilis): 16 µg/mL (≈ 9.05 µM); MIC (Bacillus subtilis): 0.5 µg/mL (≈ 0.283 µM); MBC (Staphylococcus aureus [12]): 2 µg/mL (≈ 1.13 µM); MIC (Staphylococcus aureus [12]): 0.5 µg/mL (≈ 0.283 µM)
